Data on 14 compounds can be found in patent publication US20240317744A1, “Bicyclic Ureas As Kinase Inhibitors” (Incyte Corporation, priority 2023, published 2024).

The structures appear in SMILES notation.

In experiment [1] the target is T1, catalytic domain (JH1, amino acids 826-1132) of human JAK2 (Homo sapiens, UniProt O60674).
T1 construct: catalytic domain (JH1, amino acids 826-1132) of human JAK2; FLAG (N); biotin (biotinylated); purchased Carna Biosciences 08-445-20N; host or cells: baculovirus expression system
Briefly: JAK2 LanthaScreen JH1 Binding Assay. Conditions: JAK2 JH1 1.5 nM, 50 nM tracer, 2 hours at 25° C.; read-out: JH1 BIND. Put shortly: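 FLAG-tagged, biotinylated JAK2 JH1 (aa 826-1132, baculovirus-expressed; 1.5 nM) incubated 2 h at 25° C with compounds, 50 nM fluorescent tracer and 0.5 nM Streptavidin-Tb in Tris pH 7.5 buffer with MgCl2, Brij-35, BSA, EGTA, glycerol, DTT. Nonspecific binding defined with 2 mM ATP; TR-FRET IC50 from four-parameter fit.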

For experiment [2], the target named is catalytic domain (JH1, amino acids 808-1132) of human JAK2 (Homo sapiens, UniProt O60674). Description: JAK2 HTRF Enzyme Activity Assay. The format is biochemical. Conditions: ATP 30 µM, 60 minutes at 25° C.; read-out: V617F ENZ 30 UM.
The target of experiment [3] is T2, pseudo-kinase domain (JH2, amino-acids 536-812) of human V617F mutant JAK2 (Homo sapiens, UniProt O60674, F794H/V617F/W659A/W777A).
T2 construct: pseudo-kinase domain (JH2, amino-acids 536-812 with 3 surface mutations W659A, W777A, F794H); His (C); purchased BPS Bioscience 79498; host or cells: baculovirus expression system
Description: JAK2 LanthaScreen JH2-V617F Binding Assay. Conditions: JAK2 JH2-V617F 0.26 nM, 50 nM tracer, 1 hour at 25° C.; read-out: JH2 BIND V617F. Put shortly:
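Biotinylated His-Avi-tagged JH2 protein was baculovirus-expressed and used at 0.26 nM. It was incubated with compound, 50 nM fluorescent JH2 tracer and 0.25 nM streptavidin-Tb for 1 h at 25 °C in pH 7.5 Tris buffer with MgCl2, BSA, DTT. Non-specific binding was defined with 2 mM ATP. IC50 came from four-parameter fits of TR-FRET signal.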

The target of experiment [4] is T3, pseudo-kinase domain (JH2, amino-acids 536-812) of human Wild Type JAK2 (Homo sapiens, UniProt O60674, F794H/W659A/W777A).
T3 construct: pseudo-kinase domain (JH2, amino-acids 536-812 with 3 surface mutations W659A, W777A, F794H); His (C); purchased BPS Bioscience 79463; host or cells: baculovirus expression system
Description: JAK2 LanthaScreen JH2-WT Binding Assay. Conditions: JAK2 JH2-WT 0.145 nM, 50 nM tracer, 1 hour at 25° C.; read-out: JH2 BIND WT. The essentials:
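Biotinylated C-terminal His-Avi-tagged JH2 (residues 536-812, baculovirus-expressed) at 0.145 nM was incubated with serially diluted compounds, 50 nM fluorescent JAK2-JH2 tracer and 0.25 nM streptavidin-Tb cryptate in pH 7.5 Tris buffer with MgCl2, Brij-35, BSA, EGTA, glycerol and DTT. LanthaScreen TR-FRET was read after 1 hour at 25° C; IC50 came from four-parameter fits.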

T2 sequence (O60674 536-812 V617F/W659A/W777A/F794H): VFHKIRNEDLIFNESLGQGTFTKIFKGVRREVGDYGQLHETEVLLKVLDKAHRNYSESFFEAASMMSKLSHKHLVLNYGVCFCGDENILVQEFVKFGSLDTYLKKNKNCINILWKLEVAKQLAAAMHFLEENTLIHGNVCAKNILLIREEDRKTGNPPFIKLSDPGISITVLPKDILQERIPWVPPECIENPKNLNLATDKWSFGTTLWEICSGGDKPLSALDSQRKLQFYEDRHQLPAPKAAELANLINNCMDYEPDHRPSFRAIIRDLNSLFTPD
T1 sequence (O60674 826-1132): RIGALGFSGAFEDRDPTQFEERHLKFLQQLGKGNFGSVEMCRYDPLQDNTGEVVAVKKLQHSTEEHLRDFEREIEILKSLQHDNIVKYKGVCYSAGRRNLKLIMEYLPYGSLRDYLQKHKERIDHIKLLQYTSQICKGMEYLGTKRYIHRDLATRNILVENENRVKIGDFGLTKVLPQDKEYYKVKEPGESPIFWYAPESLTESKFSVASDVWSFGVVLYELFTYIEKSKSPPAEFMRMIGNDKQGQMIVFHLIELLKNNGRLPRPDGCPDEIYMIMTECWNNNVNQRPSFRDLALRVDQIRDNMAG
Sequence of catalytic domain (JH1, amino acids 808-1132) of human JAK2 (O60674 808-1132 limits assumed): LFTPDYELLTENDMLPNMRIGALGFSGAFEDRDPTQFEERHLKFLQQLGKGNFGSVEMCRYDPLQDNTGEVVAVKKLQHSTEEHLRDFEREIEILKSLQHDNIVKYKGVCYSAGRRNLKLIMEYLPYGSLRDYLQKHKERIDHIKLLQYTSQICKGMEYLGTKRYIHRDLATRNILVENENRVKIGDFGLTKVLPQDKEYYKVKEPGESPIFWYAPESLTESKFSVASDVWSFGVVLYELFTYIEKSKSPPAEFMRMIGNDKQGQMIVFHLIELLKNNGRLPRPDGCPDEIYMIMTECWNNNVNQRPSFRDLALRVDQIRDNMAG
T3 sequence (O60674 536-812 W659A/W777A/F794H): as the sequence (O60674 536-812 V617F/W659A/W777A/F794H) above, with F82V counted along it

Regarding `Cn1c(=O)n(C2CCOC2)c2cc(Nc3cc(NC(=O)OC4CCC4)cc(-c4cnn(C5CC5)c4)c3)ncc21` (centres unmarked) [Example 62, Cyclobutyl (3-(1-cyclopropyl-1H-pyrazol-4-yl)-5-((3-methyl-2-oxo-1-(tetrahydrofuran-3-yl)-2,3-dihydro-1H-imidazo[4,5-c]pyridin-6-yl)amino)phenyl)carbamate], the IC50 in experiment [1] was > 1000 nM; in experiment [2], > 1000 nM; in experiment [3], 100 to 500 nM; in experiment [4], 100 to 500 nM.
In the case of `[2H]C([2H])([2H])n1c(=O)n([C@@H]2CC[C@@H](NC(=O)OC)C2)c2cc(Nc3cc(COC4CCC4)cc(-c4ccc5c(c4)OCCO5)n3)ncc21` [Example 63, Methyl ((1R,3R)-3-(6-((4-(cyclobutoxymethyl)-6-(2,3-dihydrobenzo[b][1,4]dioxin-6-yl)pyridin-2-yl)amino)-3-(methyl-d3)-2-oxo-2,3-dihydro-1H-imidazo[4,5-c]pyridin-1-yl)cyclopentyl)carbamate], the IC50 was > 1000 nM in experiment [1], > 1000 nM in experiment [2], 10 to 100 nM in experiment [3] and ≤ 10 nM in experiment [4].
For `COC(=O)N[C@@H]1CC[C@@H](n2c(=O)n(C)c3cnc(Nc4cccc(N5CCC(N)C5)n4)cc32)C1` (stereo partly drawn) [Example 64, Methyl ((1R,3R)-3-(6-((6-(3-aminopyrrolidin-1-yl)pyridin-2-yl)amino)-3-methyl-2-oxo-2,3-dihydro-1H-imidazo[4,5-c]pyridin-1-yl)cyclopentyl)carbamate], the IC50 in experiment [1] is > 1000 nM; in experiment [2] it was > 1000 nM; in experiment [3], 10 to 100 nM; in experiment [4], 10 to 100 nM.
For the compound `[2H]C([2H])([2H])n1c(=O)n([C@@H]2CC[C@@H](NC(=O)OC)C2)c2cc(Nc3cc(CNC4CCCC4)cc(-c4ccc5c(c4)OCCO5)n3)ncc21` [Example 65, Methyl ((1R,3R)-3-(6-((4-((cyclopentylamino)methyl)-6-(2,3-dihydrobenzo[b][1,4]dioxin-6-yl)pyridin-2-yl)amino)-3-(methyl-d3)-2-oxo-2,3-dihydro-1H-imidazo[4,5-c]pyridin-1-yl)cyclopentyl)carbamate], the IC50 is > 1000 nM in experiment [1], > 1000 nM in experiment [2], ≤ 10 nM in experiment [3] and ≤ 10 nM in experiment [4].
Turning to `COC(=O)N[C@@H]1CC[C@@H](n2c(=O)n(C)c3cnc(Nc4ccnc(N5CCCCC5)n4)cc32)C1` [Example 66, Methyl ((1R,3R)-3-(3-methyl-2-oxo-6-((2-(piperidin-1-yl)pyrimidin-4-yl)amino)-2,3-dihydro-1H-imidazo[4,5-c]pyridin-1-yl)cyclopentyl)carbamate], the IC50 in experiment [1] was > 1000 nM; in experiment [2], > 1000 nM; in experiment [3], 10 to 100 nM; in experiment [4], ≤ 10 nM.
In the case of `COC(=O)N[C@@H]1CC[C@@H](n2c(=O)n(C)c3cnc(Nc4cc(C)cc(-c5ccnc(OC)c5)n4)cc32)C1` [Example 67, Methyl ((1R,3R)-3-(6-((2′-methoxy-4-methyl-[2,4′-bipyridin]-6-yl)amino)-3-methyl-2-oxo-2,3-dihydro-1H-imidazo[4,5-c]pyridin-1-yl)cyclopentyl)carbamate], the IC50 in experiment [1] was > 1000 nM; in experiment [2] it was > 1000 nM; in experiment [3], ≤ 10 nM; in experiment [4], ≤ 10 nM.
Regarding `COC(=O)N[C@@H]1CC[C@@H](n2c(=O)n(C)c3cnc(Nc4nc(-c5ccncc5)cs4)cc32)C1` [Example 68, Methyl ((1R,3R)-3-(3-methyl-2-oxo-6-((4-(pyridin-4-yl)thiazol-2-yl)amino)-2,3-dihydro-1H-imidazo[4,5-c]pyridin-1-yl)cyclopentyl)carbamate], the IC50 in experiment [1] was > 1000 nM; in experiment [2], > 1000 nM; in experiment [3], 500 to 1000 nM; in experiment [4], 500 to 1000 nM.
`COC(=O)N[C@@H]1CC[C@@H](n2c(=O)n(C)c3cnc(Nc4ccc(F)c(-c5ccc(C(F)(F)F)nc5)n4)cc32)C1` [Example 69, Methyl ((1R,3R)-3-(6-((3-fluoro-6′-(trifluoromethyl)-[2,3′-bipyridin]-6-yl)amino)-3-methyl-2-oxo-2,3-dihydro-1H-imidazo[4,5-c]pyridin-1-yl)cyclopentyl)carbamate]: the IC50 in experiment [1] is > 1000 nM; in experiment [2], > 1000 nM; in experiment [3] it was ≤ 10 nM; in experiment [4], ≤ 10 nM.
As to `[2H]C([2H])([2H])n1c(=O)n([C@@H]2CC[C@@H](NC(=O)OC)C2)c2cc(Nc3cc(CN4CC[C@H](F)C4)cc(-c4ccc5c(c4)OCCO5)n3)ncc21` [Example 70, Methyl ((1R,3R)-3-(6-((6-(2,3-dihydrobenzo[b][1,4]dioxin-6-yl)-4-(((S)-3-fluoropyrrolidin-1-yl)methyl)pyridin-2-yl)amino)-3-(methyl-d3)-2-oxo-2,3-dihydro-1H-imidazo[4,5-c]pyridin-1-yl)cyclopentyl)carbamate], the IC50 is > 1000 nM in experiment [1], > 1000 nM in experiment [2], ≤ 10 nM in experiment [3] and ≤ 10 nM in experiment [4].
As to `COC(=O)N[C@@H]1CC[C@@H](n2c(=O)n(C)c3cnc(Nc4ccc(F)c(-c5ccc(CC#N)cc5)n4)cc32)C1` [Example 71, Methyl ((1R,3R)-3-(6-((6-(4-(cyanomethyl)phenyl)-5-fluoropyridin-2-yl)amino)-3-methyl-2-oxo-2,3-dihydro-1H-imidazo[4,5-c]pyridin-1-yl)cyclopentyl)carbamate], the IC50 was > 1000 nM in experiment [1], > 1000 nM in experiment [2], ≤ 10 nM in experiment [3] and ≤ 10 nM in experiment [4].
Consider `COC(=O)N[C@@H]1CC[C@@H](n2c(=O)n(C)c3cnc(Nc4ccc(F)c(-c5ccc(C6CC6)cc5)n4)cc32)C1` [Example 72, Methyl ((1R,3R)-3-(6-((6-(4-cyclopropylphenyl)-5-fluoropyridin-2-yl)amino)-3-methyl-2-oxo-2,3-dihydro-1H-imidazo[4,5-c]pyridin-1-yl)cyclopentyl)carbamate], for which the IC50 in experiment [1] was > 1000 nM; in experiment [2], > 1000 nM; in experiment [3], 10 to 100 nM; in experiment [4], ≤ 10 nM.
Turning to `COC(=O)N[C@@H]1CC[C@@H](n2c(=O)n(C)c3cnc(Nc4ccc(F)c(-c5ccc(OC(F)(F)F)cc5)n4)cc32)C1` [Example 73, Methyl ((1R,3R)-3-(6-((5-fluoro-6-(4-(trifluoromethoxy)phenyl)pyridin-2-yl)amino)-3-methyl-2-oxo-2,3-dihydro-1H-imidazo[4,5-c]pyridin-1-yl)cyclopentyl)carbamate], the IC50 in experiment [1] was > 1000 nM; in experiment [2], > 1000 nM; in experiment [3] it was 10 to 100 nM; in experiment [4], 10 to 100 nM.
Consider `[2H]C([2H])([2H])n1c(=O)n([C@@H]2CC[C@@H](NC(=O)OC)C2)c2cc(Nc3cc(CN4CCOCC4)cc(-c4ccc5c(c4)OCCO5)n3)ncc21` [Example 74, Methyl ((1R,3R)-3-(6-((6-(2,3-dihydrobenzo[b][1,4]dioxin-6-yl)-4-(morpholinomethyl)pyridin-2-yl)amino)-3-(methyl-d3)-2-oxo-2,3-dihydro-1H-imidazo[4,5-c]pyridin-1-yl)cyclopentyl)carbamate], for which the IC50 in experiment [1] was > 1000 nM; in experiment [2], > 1000 nM; in experiment [3], ≤ 10 nM; in experiment [4], ≤ 10 nM.
On to `[2H]C([2H])([2H])n1c(=O)n([C@@H]2CC[C@@H](NC(=O)OC)C2)c2cc(Nc3ccnc(-c4ccnc(OC)c4)n3)ncc21` [Example 75, Methyl ((1R,3R)-3-(6-((2-(2-methoxypyridin-4-yl)pyrimidin-4-yl)amino)-3-(methyl-d3)-2-oxo-2,3-dihydro-1H-imidazo[4,5-c]pyridin-1-yl)cyclopentyl)carbamate], for which the IC50 is > 1000 nM in experiment [1], > 1000 nM in experiment [2], ≤ 10 nM in experiment [3] and ≤ 10 nM in experiment [4].
